# Read-outs that look alike come from different tables or passages of the source.
# How the values were obtained:
# [1] = system: cucumber downy mildew; assay: fungicidal activity in vivo, cucumber downy mildew on cucumber seedling leaves; details: spray, investigated after 5 days
# Procedure: (§1) The procedure of determination of fungicidal activity in vivo is as follow:
# The compounds of the present invention were diluted to given concentrations and sprayed on the leaves of cucumber seedling at the same stage, on which growing point were cut off and two euphyllas were kept meanwhile, water were set as the blank control, three replicates were set for each treatment. Cucumber downy mildew spore suspension were inoculated on the second day after treatment, then, the plants were placed in a chamber (temperature: day 25° C., and night 20° C., relative humidity 95 to 100%), and then placed in greenhouse (25±2° C.) 24 hours later and routine management was conducted. The test results were investigated after 5 days, disease grading refers to the national standard of the People's Republic of China [The test criteria of pesticide field trial], the control effect was calculated by disease index.
# [2] = system: wheat powdery mildew; assay: fungicidal activity in vivo, wheat powdery mildew on wheat seedling leaves; details: spray, investigated after 7 days
# Procedure: as §1
# The compounds of the present invention were diluted to given concentrations and sprayed on the leaves of wheat seedling at the same two-leaf stage, meanwhile, water were set as the blank control, three replicates were set for each treatment. Wheat powdery mildew spore suspension were inoculated on the second day after treatment, and then placed in greenhouse (25±2° C.) and routine management was conducted. The test results were investigated after 7 days, disease grading refers to the national standard of the People's Republic of China [The test criteria of pesticide field trial], the control effect was calculated by disease index.
# [3] = system: wheat rust; details: in vivo
# [4] = system: rice blast; assay: microbe, parasite or virus in culture; format: cell-based; details: for rice blast inhibition rate %: in vitro spore germination; for inhibition at 25 µg/mL / inhibition at 2.8 µg/mL / inhibition at 8.3 µg/mL: Pyricularia oryzae, read-out: rice blast inhibition rate %
# [5] = 400 mg/L, spray, investigated after 7 days
# [6] = 100 mg/L, spray, investigated after 7 days
compound,measurement,setting,value
CCCCc1c(C)nc(Nc2ccccc2)nc1OC(=O)OC [Compound 1],cucumber downy mildew control %,[1]; 50 mg/L,0%
same,cucumber downy mildew control %,[1]; 100 mg/L,20%
same,cucumber downy mildew control %,[1]; 400 mg/L,95%
same,wheat powdery mildew control %,[2]; 50 mg/L,98%
same,wheat powdery mildew control %,[2]; 100 mg/L,100%
same,wheat powdery mildew control %,[2]; 400 mg/L,100%
CCCCc1c(C)nc(Nc2ccc(OC(F)(F)F)cc2)nc1OC(=O)OC [Compound 13],cucumber downy mildew control %,[1]; 400 mg/L,30%
same,wheat powdery mildew control %,[2]; 400 mg/L,95%
same,wheat rust control %,[3]; [5],0%
CCCCc1c(C)nc(Nc2ccccc2)nc1OC(=O)OC(C)C [Compound 46],cucumber downy mildew control %,[1]; 100 mg/L,10%
same,cucumber downy mildew control %,[1]; 400 mg/L,95%
same,wheat powdery mildew control %,[2]; 50 mg/L,98%
same,wheat powdery mildew control %,[2]; 100 mg/L,100%
same,wheat powdery mildew control %,[2]; 400 mg/L,100%
same,wheat rust control %,[3]; [6],0%
same,wheat rust control %,[3]; [5],100%
same,rice blast inhibition rate %,[4]; 2.8 mg/L,80%
same,rice blast inhibition rate %,[4]; 8.3 mg/L,100%
same,rice blast inhibition rate %,[4]; 25 mg/L,100%
CCCCc1c(C)nc(Nc2ccc(OC(F)(F)F)cc2)nc1OC(=O)OC(C)C [Compound 53],cucumber downy mildew control %,[1]; 400 mg/L,95%
same,wheat powdery mildew control %,[2]; 400 mg/L,50%
same,wheat rust control %,[3]; [5],0%
same,rice blast inhibition rate %,[4]; 25 mg/L,50%
CCCCc1c(C)nc(Nc2ccccc2)nc1OC(=O)OCC [Compound 75],cucumber downy mildew control %,[1]; 100 mg/L,30%
same,cucumber downy mildew control %,[1]; 400 mg/L,95%
same,wheat powdery mildew control %,[2]; 50 mg/L,50%
same,wheat powdery mildew control %,[2]; 100 mg/L,98%
same,wheat powdery mildew control %,[2]; 400 mg/L,95%
same,wheat rust control %,"[3]; 50 mg/L, spray, investigated after 7 days",30%
same,wheat rust control %,[3]; [6],60%
same,wheat rust control %,[3]; [5],98%
same,rice blast inhibition rate %,[4]; 25 mg/L,50%
CCCCOC(=O)Oc1nc(Nc2ccccc2)nc(C)c1CCCC [Compound 101],cucumber downy mildew control %,[1]; 400 mg/L,70%
same,wheat powdery mildew control %,[2]; 50 mg/L,70%
same,wheat powdery mildew control %,[2]; 100 mg/L,95%
same,wheat powdery mildew control %,[2]; 400 mg/L,100%
same,wheat rust control %,[3]; [6],0%
same,wheat rust control %,[3]; [5],98%
same,rice blast inhibition rate %,[4]; 25 mg/L,50%
CCCCc1c(C)nc(Nc2ccccc2)nc1OC(=O)OCc1ccccc1 [Compound 156],cucumber downy mildew control %,[1]; 400 mg/L,30%
same,wheat powdery mildew control %,[2]; 100 mg/L,80%
same,wheat powdery mildew control %,[2]; 400 mg/L,100%
same,wheat rust control %,[3],0%
same,inhibition at 25 µg/mL,[4],80%
CCCCc1c(C)nc(Nc2ccccc2)nc1OC(=O)OC(C)c1ccccc1 (stereo not drawn) [Compound 173],cucumber downy mildew control %,[1]; 400 mg/L,50%
same,wheat powdery mildew control %,[2]; 100 mg/L,80%
same,wheat powdery mildew control %,[2]; 400 mg/L,100%
same,wheat rust control %,[3]; [5],0%
same,rice blast inhibition rate %,[4]; 25 mg/L,50%
Cc1nc(Nc2ccccc2)nc(OC(=O)OC(C)C)c1C [Compound 253],cucumber downy mildew control %,[1]; 400 mg/L,20%
same,wheat powdery mildew control %,[2]; 400 mg/L,0%
same,wheat rust control %,[3]; [5],95%
same,rice blast inhibition rate %,[4]; 2.8 mg/L,50%
same,rice blast inhibition rate %,[4]; 8.3 mg/L,80%
same,rice blast inhibition rate %,[4]; 25 mg/L,100%
Cc1cc(OC(=O)OC(C)C)nc(Nc2ccccc2)n1 [Compound 270],cucumber downy mildew control %,[1]; 400 mg/L,0%
same,wheat powdery mildew control %,[2]; 400 mg/L,0%
same,wheat rust control %,[3]; [5],60%
same,rice blast inhibition rate %,[4]; 8.3 mg/L,0%
same,rice blast inhibition rate %,[4]; 25 mg/L,100%
CC(C)OC(=O)Oc1nc(Nc2ccccc2)nc2c1CCC2 [Compound 393],cucumber downy mildew control %,[1]; 400 mg/L,0%
same,wheat powdery mildew control %,[2]; 400 mg/L,0%
same,wheat rust control %,[3],70%
same,inhibition at 2.8 µg/mL,[4],0%
same,inhibition at 8.3 µg/mL,[4],80%
same,inhibition at 25 µg/mL,[4],100%
same,melting point,,124 to 126 °C
CC(C)OC(=O)Oc1nc(Nc2ccccc2)nc2c1CCCC2 [Compound 427],cucumber downy mildew control %,[1]; 400 mg/L,0%
same,wheat powdery mildew control %,[2]; 400 mg/L,0%
same,wheat rust control %,[3]; [5],98%
same,rice blast inhibition rate %,[4]; 8.3 mg/L,80%
same,rice blast inhibition rate %,[4]; 25 mg/L,100%
CC(C)OC(=O)Oc1nc(Nc2ccc(F)c(F)c2F)nc2c1CCCC2 [Compound 443],cucumber downy mildew control %,[1]; 400 mg/L,90%
same,wheat powdery mildew control %,[2]; 400 mg/L,0%
same,wheat rust control %,[3],0%
same,inhibition at 2.8 µg/mL,[4],50%
same,inhibition at 8.3 µg/mL,[4],100%
same,inhibition at 25 µg/mL,[4],100%
same,melting point,,124 to 126 °C
"CCCCc1c(C)nc(N(C)C)nc1OC(=O)OCC [Compound K1, reference compound]",cucumber downy mildew control %,[1]; 400 mg/L,0%
same,wheat powdery mildew control %,[2]; 100 mg/L,0%
same,wheat powdery mildew control %,[2]; 400 mg/L,100%
same,wheat rust control %,[3],0%
same,inhibition at 2.8 µg/mL,[4],0%
same,inhibition at 8.3 µg/mL,[4],80%
same,inhibition at 25 µg/mL,[4],100%
"COC(=O)Oc1cc(C2CC2)nc(Nc2ccccc2)n1 [Compound K2, reference compound]",cucumber downy mildew control %,[1]; 400 mg/L,0%
same,wheat powdery mildew control %,[2]; 400 mg/L,0%
same,wheat rust control %,[3],0%
same,inhibition at 25 µg/mL,[4],80%

# From patent US9018218B2 (priority 2010, dated 2015)
